Test [1] deals with mitochondrial succinate dehydrogenase (SDH). The test can be described thus: biochemical. Details: species or system Zymoseptoria tritici.
The target in test [2] is mitochondrial succinate dehydrogenase (SDH) (Zymoseptoria tritici, UniProt F9X9V6+F9XH52+O42772). The test can be described thus: biochemical. The settings on record: IC50.
Test [3] has as its system Zymoseptoria tritici. The test is described as follows: microbe, parasite or virus in culture. In kind it is cell-based.
The test system of test [4] is Zymoseptoria tritici. The settings on record: in vivo.
[5] abbreviates: Zymoseptoria tritici, read-out: EC50 Median.
[6] abbreviates: Zymoseptoria tritici, read-out: EC50 Range.

Values after ≈ are worked out from the molar mass of the structure shown. Values joined by “and” are separate entries in the source; they are usually repeats but may differ in a detail not shown here. Identical values can stand only once. Like-named read-outs stand apart in the source and are kept apart here.

Sequence of mitochondrial succinate dehydrogenase (SDH) (Zymoseptoria tritici, UniProt F9X9V6+F9XH52+O42772) (O42772 19-297): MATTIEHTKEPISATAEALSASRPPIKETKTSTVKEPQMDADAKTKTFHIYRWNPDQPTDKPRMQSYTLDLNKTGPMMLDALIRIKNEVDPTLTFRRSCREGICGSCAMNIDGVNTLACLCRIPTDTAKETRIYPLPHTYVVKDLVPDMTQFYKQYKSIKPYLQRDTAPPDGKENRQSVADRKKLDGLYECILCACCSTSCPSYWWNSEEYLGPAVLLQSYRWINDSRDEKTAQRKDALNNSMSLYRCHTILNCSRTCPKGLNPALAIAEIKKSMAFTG
Sequence of mitochondrial succinate dehydrogenase (SDH) (Zymoseptoria tritici, UniProt F9X9V6+F9XH52+O42772) (F9XH52 44-187): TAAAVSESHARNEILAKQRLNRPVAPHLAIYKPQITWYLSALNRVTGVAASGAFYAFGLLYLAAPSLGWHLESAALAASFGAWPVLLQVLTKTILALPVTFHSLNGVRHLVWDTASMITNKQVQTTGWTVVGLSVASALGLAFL
Sequence of mitochondrial succinate dehydrogenase (SDH) (Zymoseptoria tritici, UniProt F9X9V6+F9XH52+O42772) (F9X9V6 1-193): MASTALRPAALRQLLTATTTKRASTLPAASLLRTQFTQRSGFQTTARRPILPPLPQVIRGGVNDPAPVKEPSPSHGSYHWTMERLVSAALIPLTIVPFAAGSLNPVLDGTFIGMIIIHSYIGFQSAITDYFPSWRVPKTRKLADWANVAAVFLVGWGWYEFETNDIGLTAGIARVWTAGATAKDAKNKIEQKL
Sequence of mitochondrial succinate dehydrogenase (SDH) (Zymoseptoria tritici, UniProt F9X9V6+F9XH52+O42772) (F9WWR1 29-643 partner): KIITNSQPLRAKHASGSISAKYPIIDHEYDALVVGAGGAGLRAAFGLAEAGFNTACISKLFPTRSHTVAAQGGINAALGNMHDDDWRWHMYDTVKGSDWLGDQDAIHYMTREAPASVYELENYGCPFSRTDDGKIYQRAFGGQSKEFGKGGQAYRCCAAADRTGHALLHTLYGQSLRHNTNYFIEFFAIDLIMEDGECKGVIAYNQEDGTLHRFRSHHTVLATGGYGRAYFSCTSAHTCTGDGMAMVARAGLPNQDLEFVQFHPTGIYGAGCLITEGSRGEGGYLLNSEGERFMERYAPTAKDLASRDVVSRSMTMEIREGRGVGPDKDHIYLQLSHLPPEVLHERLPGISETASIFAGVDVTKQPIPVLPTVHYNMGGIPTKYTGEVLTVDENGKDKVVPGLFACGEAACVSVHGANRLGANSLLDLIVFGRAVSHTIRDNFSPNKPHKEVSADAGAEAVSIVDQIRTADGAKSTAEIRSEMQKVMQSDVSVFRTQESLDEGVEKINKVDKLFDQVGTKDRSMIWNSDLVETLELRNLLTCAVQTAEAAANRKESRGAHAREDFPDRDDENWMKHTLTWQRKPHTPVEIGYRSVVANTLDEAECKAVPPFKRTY

`Cn1cc(C(=O)Nc2ccc(F)cc2-c2ccc(Cl)c(Cl)c2)c(C(F)F)n1` [Bixafen, bixafen]: the 50% inhibitory concentration (IC50) in test [1] is 0.031 µM and 0.049 µM; in test [2], 0.033 µM and 0.038 µM. Moreover, the EC50 in the test on Zymoseptoria tritici [3] is 0.03 mg/L (≈ 0.0724 µM); in the test with Zymoseptoria tritici [3] (Zymoseptoria tritici) it was 0.03 mg/L (≈ 0.0724 µM); with Zymoseptoria tritici [3] (setting [5]) it was 0.063 mg/L (≈ 0.152 µM); with Zymoseptoria tritici [3] (setting [6]), 0.017 to 0.406 mg/L (≈ 0.041 to 0.98 µM). Besides, in the test with Zymoseptoria tritici [3], the “EC50 Median” value came to 0.096 mg/L (≈ 0.232 µM). In the test on Zymoseptoria tritici [4], this compound displayed a Control efficacy of 0%. Moreover, the “application rate at which strain was well controlled” value with Zymoseptoria tritici [4] is 3 mg/L. Besides, in the test on Zymoseptoria tritici [4], the “application rate at which strains were well controlled” value amounted to 10 mg/L.
Regarding `O=C(Nc1ccccc1-c1ccc(Cl)cc1)c1cccnc1Cl` [Boscalid, boscalid], in the test on Zymoseptoria tritici [3] (Zymoseptoria tritici), the EC50 was 0.16 mg/L (≈ 0.466 µM).
Take `N#Cc1c(Cl)c(Cl)c(Cl)c(C#N)c1Cl` [Chlorothalonil, chlorothalonil]: in the test on Zymoseptoria tritici [3], the “Resistance factor (RF)” value was 0.8 and 1.2 and 1.3 and 1.4 and 0.7; the “sensitivity of strains (in words)” value is on record as “sensitive”. Moreover, the midpoint of the response in the test with Zymoseptoria tritici [3] (Zymoseptoria tritici), the EC50, lay at 0.13 mg/L (≈ 0.489 µM).
Take `[Cl][Sn]([c]1ccccc1)([c]1ccccc1)[c]1ccccc1` [Fentin Cl, fentin chloride]: the half-maximal effective concentration (EC50) with Zymoseptoria tritici [3] is 0.07 mg/L.
For `O=C(NCCc1ncc(C(F)(F)F)cc1Cl)c1ccccc1C(F)(F)F` [Fluopyram, fluopyram], the EC50 in the test with Zymoseptoria tritici [3] was 0.20 mg/L (≈ 0.504 µM); with Zymoseptoria tritici [3] (Zymoseptoria tritici), 0.2 mg/L (≈ 0.504 µM); with Zymoseptoria tritici [3] (setting [5]) it was 0.19 mg/L (≈ 0.479 µM); with Zymoseptoria tritici [3] (setting [6]) it was 0.08 to 7.78 mg/L (≈ 0.202 to 19.6 µM). For the same compound, the “EC50 Median” value in the test on Zymoseptoria tritici [3] worked out at 0.215 mg/L (≈ 0.542 µM). Also, in the test on Zymoseptoria tritici [4], the “application rate providing control” value was no less than 30 mg/L. Besides, the “in planta control (in words)” value in the test with Zymoseptoria tritici [4] is listed as “not controlled”.
As for `Cn1cc(C(=O)Nc2ccccc2-c2cc(F)c(F)c(F)c2)c(C(F)F)n1` [Fluxapyroxad], in the test on Zymoseptoria tritici [3], the EC50 came to 0.04 mg/L (≈ 0.105 µM) and the “RF in comparison with reference strain IPO323” value is less than 10. The same compound displayed an EC50 in the test on Zymoseptoria tritici [3] (Zymoseptoria tritici) of 0.04 mg/L (≈ 0.105 µM).
As to `Cc1cc(OC(C)C)ccc1C(=O)C(C)(C)NC(=O)c1sccc1C` [Isofetamid, N‐[1,1‐dimethyl‐2‐(4‐isopropoxy‐o‐tolyl)‐2‐oxoethyl]‐3‐methylthiophene‐2‐carboxamide], the EC50 was 0.06 mg/L (≈ 0.167 µM) with Zymoseptoria tritici [3]; 0.09 mg/L (≈ 0.25 µM) with Zymoseptoria tritici [3] (setting [5]); greater than 50 mg/L with Zymoseptoria tritici [3] (Zymoseptoria tritici, read-out: high EC50 values (upper end of the sensitivity range)). Also, the “EC50 Median” value in the test with Zymoseptoria tritici [3] turned out to be 0.096 mg/L (≈ 0.267 µM). In the test with Zymoseptoria tritici [4], the “in planta control (in words)” value is given as “not controlled”.
As for `CC(C)CC(C)c1sccc1NC(=O)c1cn(C)nc1C(F)(F)F` (stereo not drawn) [Penthiopyrad, penthiopyrad], the EC50 in the test with Zymoseptoria tritici [3] (Zymoseptoria tritici) came out at 0.05 mg/L (≈ 0.139 µM).
`Cc1cccc(N(C)C(=S)Oc2ccc3ccccc3c2)c1` [Tolnaftate, tolnaftate]: in the test on Zymoseptoria tritici [3], the “growth in the presence of tolnaftate” value was “none of these strains was able to grow”. Besides, a half-maximal response with Zymoseptoria tritici [3] (Zymoseptoria tritici) (EC50) required 0.17 mg/L (≈ 0.553 µM).

For orientation: IC50 means the concentration at which inhibition is half-maximal. Lower therefore signals greater potency in that assay. In general, EC50 refers to the concentration needed to bring the measured effect to its halfway point.
